Test results: patent US6004967A, “Psoriasis treatment with quinazoline compounds” (priority 1997, dated 1999)

Assays:
[1] = tested on: psoriatic human keratinocytes; assay: Growth of psoriatic human keratinocytes; format: cell-based
Description: Cells and Cell Culture. All tumor cell lines were obtained from the American Type Culture Collection (Rockville, Md.), unless otherwise specified. NIH3T3 mouse fibroblasts overexpressing the EGF receptor, IGF-1 receptor, insulin receptor, PDGF-b receptor, or a chimera of the EGF receptor extracellular domain fused to the Her-2 cytoplasmic domain were engineered using retroviral vectors. These cells will be referred to as 3T3-EGFR, 3T3-IGF1R, 3T3-IR, 3T3-PDGF-bR, and 3T3-EGFR/Her-2, respectively. All cell culture media and supplements were purchased from Gibco Life Technologies (Grand Island, N.Y.) unless otherwise specified. […] Cell lines were maintained under standard conditions in culture media recommended by the ATCC, unless otherwise specified. 3T3-EGFR, 3T3-PDGF-bR, and 3T3-EGFR/Her-2 cells were maintained in DMEM containing 10% calf serum (CS) and 2 mM GLN. 3T3-IGF1R and 3T3-IR cells were maintained in DMEM containing 10% FBS and 2 mM GLN. Keratinocytes were obtained from small biopsy specimens of split-thicknessskin from patients with psoriasis and from healthy control donors.
(§1) In vitro functional studies. […] Cell lines examined in receptor phosphorylation ELISA were 3T3-EGFR, 3T3-EGFR/Her-2, 3T3-PDGF-bR, 3T3-IGF1R, and 3T3-IR. For analysis of DNA replication (measured as incorporation of BrdU) and cell cycle progression, 3T3-EGFR and 3T3-PDGF-bR cell lines were used. Cell growth studies were carried out on A431 (EGF-R+), BT474 (Her-2+), and C6 (PDGF-bR+) cell lines.

3T3-EGFR cells = assay: EGF-driven DNA replication (BrdU incorporation); format: cell-based; details: Mus musculus, 20 hours
Protocol: as §1

in vivo = details: mouse, in vivo
[2] = Excipient screening (visual solubility after 24 hrs)
in vitro = in vitro ADME, human
Protocol: . […] . Thus, biologically relevant concentrations of the drug penetrated the skin and reached the target tissue (epidermis) within 24 hours of application.
. The area of the cadaver skin used was 1.77 cm^2. The calculated volume using this assumption is 17.7 μL. Molar concentration was calculated from the microgram recovery in the epidermis.

[3] = Plasma concentration after single IP dose; format: in vivo; details: mouse
Protocol: **Single dose (50 mg/kg), IP, in BALB/c, nu/nu, female mice.

[4] = tested on: NIH 3T3 C7 cells engineered to express EGF-R (3T3-EGFR); assay: 3T3 cell growth assay, EGF-R C7 cells (3T3-EGFR); format: cell-based; details: Mus musculus, NIH3T3, 96 h, read-out: 3T3-EGFR IC50
Protocol: The efficacy of the above identified compounds in inhibiting or reducing EGF-R stimulated proliferation is measured by the 3T3 cell growth assay. The 3T3 growth assay was carried out as follows:
EGF-RC7 (NIH 3T3 C7 cells engineered to express EGF-R) and NIH 3T3C7 cells (as the control) were used for this assay. NIH3T3C7 cells were seeded at 2500 cells/well, […] in 10% CS+2 mM Glutamine/DMEM, in a 96 well plate; EGF-RC7 cells were seeded at 6000 cells/well, 100 μl/well in 2% FBS+2 mM Glutamine/DMEM, in a 96 well plate. Cells were incubated at 37° C., 5% CO2 overnight to allow for cell attachment to the plate.
A quinazoline compound was added to the cells at day 2. The compound was prepared in the appropriate growth medium (10% CS+2 mM glutamine in DMEM for NIH3T3C7 cells; 2% FBS+2 mM Glutamine in DMEM for EGF-RC7 cells) in a 96 well plate, and serially diluted. A total of 100 μl/well medium of the diluted compounds was added into the cells. The total volume of each well was 200 μl.
After the cells were treated with the compound for 4 days, the cells were washed with PBS and fixed with 200 μl/well ice-cold […] for one hour at 0-5° C.
Remove TCA and rinse wells 5 times with deionized water. Dry plates upside down with paper towels. Stain cells with 0.4% SRB at 100 μl/well for 10 minutes.
Pour off SRB and rinse plate 5 times with 1% acetic acid. Dry plate completely.
Solubilize the dye with 10 mM Tris-base at 100 μl/well for 10 minutes on a shaker.
Read the plate at dual wavelengths at 570 nm and 630 nm on Dynatech Elisa plate reader.

[5] = Solubility of A1 in pure solvents
A431 = assay: Cell growth (SRB), A431; format: cell-based
Protocol: as §1
After 4 days, cell density was measured by SRB staining. IC50 values were determined by regression analysis. For these experiments, cell lines whose growth is dependent on naturally-expressed RTK were examined.

## COc1cc2ncnc(Nc3cccc(Br)c3)c2cc1OC [A1, 4-(3-Bromophenylamino)-6,7-dimethoxyquinazoline]
[1]
  inhibition of psoriatic skin cell / keratinocyte proliferation in vitro (in words): capable of inhibiting
[1]; Homo sapiens, Keratinocyte, 120 h, read-out: IC99, inhibition of psoriatic keratinocyte proliferation
  IC99: ~14 µM
[1]; Homo sapiens, Keratinocyte, read-out: IC50, growth of psoriatic keratinocytes
  IC50: < 1000 nM
3T3-EGFR cells
  IC50: 30 nM
In vivo
  toxicity (in words): low toxicity
[2]; 1.0 N HCl
  Solubility After 24 Hrs.: Insoluble/Yellow
[2]; Benzyl Alcohol
  Solubility After 24 Hrs.: Soluble
[2]; Conc. NaOH
  Solubility After 24 Hrs.: Insoluble
[2]; Distilled H2O
  Solubility After 24 Hrs.: Insoluble
[2]; EtOH/Poly-80 50:50, [Drug] 10 mg/mL
  Solubility After 24 Hrs.: Slightly Soluble
[2]; Ethanol
  Solubility After 24 Hrs.: Partially Soluble
[2]; Isopropyl Myristate
  Solubility After 24 Hrs.: Insoluble/Cloudy
[2]; Oleic Acid
  Solubility After 24 Hrs.: Insoluble/Yellow/Cloudy
[2]; PEG-300
  Solubility After 24 Hrs.: Soluble
[2]; Polysorbate-80, [Drug] 10 mg/mL
  Solubility After 24 Hrs.: Slightly Soluble
[2]; Propylene Carbonate
  Solubility After 24 Hrs.: Soluble/80C/10 min.
[2]; Propylene Glycol
  Solubility After 24 Hrs.: Slightly Soluble/Clear/
[2]; Triacetin
  Solubility After 24 Hrs.: Partially Soluble
In vitro
  skin penetration (in words): penetrated human cadaver skin, reaching biologically effective concentrations in the epidermis
In vitro; human, topical or ocular, concentration in the epidermis after 24 hours
  concentration at 24 h: 141 to 355 µM
[3]; in vivo
  plasma half-life (in words): short plasma half-life
[3]; plasma, single dose 50 mg/kg IP, BALB/c nu/nu female mice, 5 min
  concentration at 5 min: 17900 ± 4300 ng/mL
[3]; plasma, single dose 50 mg/kg IP, BALB/c nu/nu female mice, 15 min
  concentration at […]: 6300 ± 3700 ng/mL
[3]; plasma, single dose 50 mg/kg IP, BALB/c nu/nu female mice, 60 min
  concentration at 1 h: 2000 ± 900 ng/mL
[4]
  IC50: 75 nM
[5]; Benzyl Alcohol, NF
  Not Soluble at: 4.77 % w/w
  Soluble at: 3.60 % w/w
[5]; Benzyl Benzoate, USP (printed Betizyl Berizoate)
  Not Soluble at: 0.85 % w/w
[5]; Caprylic/Capric Triglyceride (Miglyol 812)
  Not Soluble at: 0.84 % w/w
[5]; Dehydrated Alcohol, USP
  Not Soluble at: 0.98 % w/w
  Soluble at: 0.76 % w/w
[5]; Diethyl Sebacate
  compatibility / solubility: not compatible (yellow)
[5]; Diisopropyl Adipate
  Not Soluble at: 0.66 % w/w
[5]; Dimethyl isosorbide
  Not Soluble at: 0.97 % w/w
[5]; Ethoxydiglycol (Transcutol)
  Not Soluble at: 3.74 % w/w
  Soluble at: 2.41 % w/w
[5]; Finsolve TN (Finetex)
  Not Soluble at: 1.27 % w/w
[5]; Hexylene Glycol
  Not Soluble at: 2.05 % w/w
  Soluble at: 0.98 % w/w
[5]; Isopropyl Alcohol, 99%
  Not Soluble at: 1.25 % w/w
[5]; Isotearyl Alcohol
  Not Soluble at: 0.99 % w/w
[5]; Laureth 4
  Soluble at: 4.10 % w/w
[5]; Octyldodecanol, NF
  Not Soluble at: 0.68 % w/w
[5]; Oleic Acid, NF
  Not Soluble at: 1.00 % w/w
[5]; Polyethylene Glycol 300, USP
  Not Soluble at: 2.10 % w/w
  Soluble at: 1.00 % w/w
[5]; Polyethylene Glycol 400, USP
  Not Soluble at: 2.44 % w/w
  Soluble at: 1.76 % w/w
[5]; Polysorbate 20, NF
  Not Soluble at: 0.99 % w/w
[5]; Propylene Carbonate, NF
  Not Soluble at: 1.46 % w/w
  Soluble at: 0.98 % w/w
[5]; Propylene Glycol, USP
  Not Soluble at: 0.59 % w/w
[5]; Triacetin USP
  Not Soluble at: 0.96 % w/w
[5]; among anticancer compounds
  solubility in nonirritant solvents (in words): relative high solubility in nonirritant solvents
A431
  growth of cell lines driven by the EGF-R/Her family of RTK (in words): preferentially inhibited
A431; Homo sapiens, A-431, 96 h
  IC50: 1600 nM
